Patent US8722683B2, “Benzodioxole piperazine compounds” (Hoffmann LA-Roche Inc., priority 2011, dated 2014)
Like-named read-outs stand apart in the source and are kept apart here.

Columns and labels:
D3 receptor = D3 receptor (Homo sapiens (Human), UniProt P35462); assay: Radioligand binding ([3H]-spiperone) to cloned D3 receptor expressed in HEK-293 EBNA cells; settings: HEK293 EBNA membranes, 0.5 nM [3H]-spiperone
D2 receptor = D2 receptor (Homo sapiens (Human), UniProt P14416); assay: Radioligand binding ([3H]-spiperone) to cloned D2 receptor expressed in HEK-293 EBNA cells; settings: HEK293 EBNA membranes, 0.7 nM [3H]-spiperone
5-HT2A receptor = 5-HT2A receptor (Homo sapiens (Human), UniProt P28223); assay: Radioligand binding ([3H]-ketanserin) to cloned 5-HT2A receptor expressed in HEK-293 EBNA cells
Procedure: HEK293 EBNA cells were transiently transfected with expression plasmids encoding for the human D2 or D3 or for the human 5-HT2A receptor, respectively. The cells were harvested 48 h post-transfection, washed three times with cold PBS and stored at −80° C. prior to use. The pellet was suspended in cold 50 mM Tris-HCl buffer containing 10 mM EDTA (pH 7.4) and was homogenized with a Polytron (Kinematica AG, Basel, Switzerland) for 20-30 sec at 12.000 rpm. After centrifugation at 48.000×g for 30 min at 4° C., the pellet was resuspended in cold 10 mM Tris-HCl buffer containing 0.1 mM EDTA (pH 7.4), homogenized, and centrifuged as above. This pellet was further resuspended in a smaller volume of ice cold 10 mM Tris-HCl buffer containing 0.1 mM EDTA (pH 7.4) and homogenized with a Polytron for 20-30 sec at 12.000 rpm. The protein content of this homogenate was determined with the Bio-Rad (Bradford) Protein Assay (Biorad Laboratories GmbH, München, Germany) according to the instructions of the manufacturer using gamma globulin as the standard. This homogenate was stored at −80° C. in aliquots and thawed immediately prior to use.
Radioligand Binding Assay
Aliquots of membrane preparations were thawed at RT, resupended in assay buffer (D2, D3: 50 mM Tris-HCl, 120 mM NaCl, 5 mM MgCl2, 1 mM EDTA, 5 mM KCl, 1.5 mM CaCl2, pH=7.4; 5-HT2A: 50 mM Tris-HCl, 10 mM MgCl2, 1 mM EGTA, pH=7.4), homogenized with a Polytron for 20-30 sec at 12.000 rpm and adjusted to a final concentration of approximately 7.5 μg protein/well (D2, D3) and 15 μg protein/well (5-HT2A), respectively.
The binding affinity (Ki) of the compounds was determined using radioligand binding. […] The nonspecific binding was determined with equally composed reaction mixtures in the presence of 10 μM unlabelled spiperone. Per well 45 μl of Microscint 40 (Perkin Elmer, Schwerzenbach, Switzerland) was added, plates for sealed, shaken for 20 min and counted for 3 min on a Topcount Microplate Scintillation Counter (Canberra Packard SA, Zürich, Switzerland) with quenching correction.
The CPM value for each duplicate of a concentration of competing compound was averaged (y1), then the % specific binding was calculated according to the equation (((y1−non-specific)/(total binding−non-specific))×100). Graphs were plotted with the % specific binding using XLfit, a curve fitting program that iteratively plots the data using Levenberg-Marquardt algorithm. The single site competition analysis equation used was y=A+((B−A)/(1+((x/C)D))), where y is the % specific binding, A is the minimum y, B is the maximum y, C is the IC50, x is the log 10 of the concentration of the competing compound and D is the slope of the curve (the Hill Coefficient). […] The affinity constant (Ki) was calculated using the Cheng-Prusoff equation Ki=(IC50/1+([L]/Kd), where [L] is the concentration of radioligand and Kd is the dissociation constant of the radioligand at the receptor as determined by the saturation isotherm.

Sequence of 5-HT2A receptor (P28223 whole entry): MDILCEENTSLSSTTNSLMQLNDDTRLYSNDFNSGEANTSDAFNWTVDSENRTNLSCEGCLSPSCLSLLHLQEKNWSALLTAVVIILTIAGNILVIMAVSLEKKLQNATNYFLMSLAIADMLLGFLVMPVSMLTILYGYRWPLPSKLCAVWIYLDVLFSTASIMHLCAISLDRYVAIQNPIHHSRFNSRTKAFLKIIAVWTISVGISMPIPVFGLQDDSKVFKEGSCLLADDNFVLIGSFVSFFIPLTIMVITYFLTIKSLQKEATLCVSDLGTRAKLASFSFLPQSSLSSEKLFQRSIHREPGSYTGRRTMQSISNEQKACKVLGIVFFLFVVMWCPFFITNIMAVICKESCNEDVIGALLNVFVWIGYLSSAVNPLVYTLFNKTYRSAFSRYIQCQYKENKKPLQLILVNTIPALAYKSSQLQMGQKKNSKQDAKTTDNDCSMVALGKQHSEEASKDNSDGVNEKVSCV
Sequence of D3 receptor (P35462 whole entry): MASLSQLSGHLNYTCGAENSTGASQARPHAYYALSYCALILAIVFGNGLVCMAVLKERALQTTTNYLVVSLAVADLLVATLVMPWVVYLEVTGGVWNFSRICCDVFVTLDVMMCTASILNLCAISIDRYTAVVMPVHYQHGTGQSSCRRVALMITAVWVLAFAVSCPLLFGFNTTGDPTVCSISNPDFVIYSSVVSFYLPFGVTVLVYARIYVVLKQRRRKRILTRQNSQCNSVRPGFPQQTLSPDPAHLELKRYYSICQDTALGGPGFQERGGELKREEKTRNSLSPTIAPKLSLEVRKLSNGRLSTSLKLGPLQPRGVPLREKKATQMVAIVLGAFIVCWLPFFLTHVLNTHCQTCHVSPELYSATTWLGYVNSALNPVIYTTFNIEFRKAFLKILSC
Sequence of D2 receptor (P14416 whole entry): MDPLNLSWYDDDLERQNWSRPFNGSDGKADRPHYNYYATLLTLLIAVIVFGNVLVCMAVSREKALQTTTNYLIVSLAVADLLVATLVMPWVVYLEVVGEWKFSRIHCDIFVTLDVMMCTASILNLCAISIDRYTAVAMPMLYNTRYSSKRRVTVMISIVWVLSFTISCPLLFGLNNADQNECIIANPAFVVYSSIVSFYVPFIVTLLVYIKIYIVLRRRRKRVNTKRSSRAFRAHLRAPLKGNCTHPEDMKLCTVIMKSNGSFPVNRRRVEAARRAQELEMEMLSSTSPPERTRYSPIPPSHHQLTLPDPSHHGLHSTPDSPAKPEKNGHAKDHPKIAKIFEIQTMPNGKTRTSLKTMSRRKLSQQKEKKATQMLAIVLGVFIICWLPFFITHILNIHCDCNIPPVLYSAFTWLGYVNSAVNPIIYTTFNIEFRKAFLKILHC

O=C(CC1COC1)N[C@H]1CC[C@H](CCN2CCN(c3cccc4c3OCO4)CC2)CC1 [Example 22, Trans-N-{4-[2-(4-Benzo[1,3]dioxol-4-yl-piperazin-1-yl)-ethyl]-cyclohexyl}-2-oxetan-3-yl-acetamide]
Ki (D3 receptor): 2.06 nM | melting point: 190 °C | Ki (D2 receptor): 106 nM

CC(C)[C@@H](O)C(=O)N[C@H]1CC[C@H](CCN2CCN(c3cccc4c3OCO4)CC2)CC1 [Example 39, (R)-Trans-N-{4-[2-(4-Benzo[1,3]dioxol-4-yl-piperazin-1-yl)-ethyl]-cyclohexyl}-2-hydroxy-3-methyl-butyramide]
Ki (D3 receptor): 5.77 nM | Ki (D2 receptor): 90.2 nM | Ki (5-HT2A receptor): 34.7 nM

CC(C)[C@H](O)C(=O)N[C@H]1CC[C@H](CCN2CCN(c3cccc4c3OCO4)CC2)CC1 [Example 40, (S)-Trans-N-{4-[2-(4-Benzo[1,3]dioxol-4-yl-piperazin-1-yl)-ethyl]-cyclohexyl}-2-hydroxy-3-methyl-butyramide]
Ki (D3 receptor): 14.8 nM | Ki (D2 receptor): 73.4 nM | Ki (5-HT2A receptor): 22.5 nM

O=C(N[C@H]1CC[C@H](CCN2CCN(c3cccc4c3OCO4)CC2)CC1)C1CCOCC1 [Example 43, Tetrahydro-pyran-4-carboxylic acid-trans-N-{4-[2-(4-benzo[1,3]dioxol-4-yl-piperazin-1-yl)-ethyl]-cyclohexyl}-amide]
Ki (D3 receptor): 4.48 nM | Ki (D2 receptor): 219 nM | Ki (5-HT2A receptor): 7.74 nM

O=C(N[C@H]1CC[C@H](CCN2CCN(c3cccc4c3OCO4)CC2)CC1)c1ccc2c(c1)OCCO2 [Example 49, 2,3-Dihydro-benzo[1,4]dioxine-6-carboxylic acid-trans-N-{4-[2-(4-benzo[1,3]dioxol-4-yl-piperazin-1-yl)-ethyl]-cyclohexyl}-amide]
Ki (D3 receptor): 4.59 nM | Ki (D2 receptor): 4820 nM | Ki (5-HT2A receptor): 10.7 nM

O=C(N[C@H]1CC[C@H](CCN2CCN(c3cccc4c3OCO4)CC2)CC1)C1CCS(=O)(=O)C1 (stereo partly drawn) [Example 52, 1,1-Dioxo-tetrahydro-1,6-thiophene-3-carboxylic acid-trans-N-{4-[2-(4-benzo[1,3]dioxol-4-yl-piperazin-1-yl)-ethyl]-cyclohexyl}-amide]
Ki (D3 receptor): 3.56 nM | Ki (D2 receptor): 59 nM | Ki (5-HT2A receptor; human 5-HT2A receptor, HEK293 EBNA membranes, 1.1 nM [3H]-ketanserin): 4.3 nM

CN1CCC(C(=O)N[C@H]2CC[C@H](CCN3CCN(c4cccc5c4OCO5)CC3)CC2)CC1 [Example 57, 1-Methyl-piperidine-4-carboxylic acid-trans-N-{4-[2-(4-benzo[1,3]dioxol-4-yl-piperazin-1-yl)-ethyl]-cyclohexyl}-amide]
Ki (D3 receptor): 24.9 nM | Ki (D2 receptor): 62.9 nM | Ki (5-HT2A receptor): 15.3 nM

CC1(C(=O)N[C@H]2CC[C@H](CCN3CCN(c4cccc5c4OCO5)CC3)CC2)COC1 [Example 58, 3-Methyl-oxetane-3-carboxylic acid-trans-N-{4-[2-(4-benzo[1,3]dioxol-4-yl-piperazin-1-yl)-ethyl]-cyclohexyl}-amide]
Ki (D3 receptor): 6.82 nM | Ki (D2 receptor): 81.1 nM | Ki (5-HT2A receptor): 15.6 nM

CN1CCN(CC(=O)N[C@H]2CC[C@H](CCN3CCN(c4cccc5c4OCO5)CC3)CC2)CC1 [Example 61, Trans-N-{4-[2-(4-Benzo[1,3]dioxol-4-yl-piperazin-1-yl)-ethyl]-cyclohexyl}-2-(4-methyl-piperazin-1-yl)-acetamide]
Ki (D3 receptor): 4.63 nM | Ki (D2 receptor): 38.1 nM | Ki (5-HT2A receptor): 16 nM

COC1(C(=O)N[C@H]2CC[C@H](CCN3CCN(c4cccc5c4OCO5)CC3)CC2)CC1 [Example 62, 1-Methoxy-cyclopropanecarboxylic acid-trans-N-{4-[2-(4-benzo[1,3]dioxol-4-yl-piperazin-1-yl)-ethyl]-cyclohexyl}-amide]
Ki (D3 receptor): 14.3 nM | Ki (D2 receptor): 86.5 nM | Ki (5-HT2A receptor): 6.27 nM

CN(C)S(=O)(=O)N[C@H]1CC[C@H](CCN2CCN(c3cccc4c3OCO4)CC2)CC1 [Example 76, N-trans-{4-[2-(4-benzo[1,3]dioxol-4-yl-piperazin-1-yl)-ethyl]-cyclohexyl}-N,N-dimethyl-sulfamide]
Ki (D3 receptor): 3.36 nM | Ki (D2 receptor): 128 nM | Ki (5-HT2A receptor): 21.6 nM
